Source: patent US9107879B1, “Methods of increasing the cytotoxicity of chemotherapeutic agents with multisubstrate inhibitors of histone, protein-lys, polyamine acetylation, and polyamine metabolism” (Vanderbilt University, priority 2010, dated 2015)

Legend:
[1] = system: endogenous HATs associated with solubilized chromatin; conditions: literature (Bandyopadhyay et al 2009; Parello et al. 1990); cited from earlier work
γ-H2A.X in H358 cells = assay: double strand break / gamma-H2A.X Western and co-immunoprecipitation; assay type: cell-based; conditions: 18 hours post-start; 1a 50 μM, 5FU 2 μM, cisplatin 2 μM, camptothecin 5 nM
Description: Also shown are controls for no treatment (“c” minus 1a) or treatment with 1a only (“c” plus 1a). Each lane represents 60 μg protein. […] Each lane represents 60 μg protein.
To measure DSB repair, cells were incubated for 1 hour with 10 μM camptothecin to induce DSBs, followed by incubation in the presence or absence of 50 μM 1a. At fixed times, histones were prepared by extraction in 0.2M H2SO4 as described previously and 50 μg extract was analyzed by 12% SDS-PAGE followed Western analysis as described previously, using rabbit polyclonal anti-γ-H2A.X [phosphor ser 139] (Novus Biologicals, Littleton, Colo.) or anti-H3 (Upstate Biotechnology, Inc, Lake Placid, N.Y.). Band intensities were quantitated digitally. To study acetylation of γ-H2A.X, we carried out co-immunoprecipitation analysis using 50 μg extract protein in immunoprecipitation buffer (10 mM sodium phosphate pH 7, 0.15 M NaCl, 0.1% SDS, 1% NP40, 1% sodium deoxycholate, aprotinin, 1 mM PMSF, complete protease inhibitors (Roche) using immobilized anti-acetyl-lysine (Millipore, Temecula, Calif.) in the immunoprecipitation step. The immunoprecipitated material was then analyzed as for Western analysis using anti γ-H2A.X.
Double strand breaks (DSBs) can be formed by a variety of DNA damaging agents, including camptothecin, cisplatin, 5FU, and UVC radiation (Avemann K, et al., 1988, Mol Cell Biol, 8: 3026-34; Bogdanov K V, et al. 1997, Br J Haematol, 98:869-72; Pavon M A, et al., Int J Cancer, 2008, 123:1068-79) implying that DSB repair may play a role in reducing their cellular toxicity. To examine how 1a treatment affects DSB repair in H358 cells we made use of the fact that the histone variant, H2A.X becomes phosphorylated at sites of double strand breaks (denoted γ-H2A.X), and can be detected by immunoblot analysis of acid extracted cells (Rogaku E P, et al., 1999, J Cell Biol, 146:905-16). […] Total H3 levels and H2A.X levels (control) are unaffected by these treatments (FIG. 4B). […]

[2] = system: normal GT41F human skin fibroblast cells; assay: [3H]-thymidine incorporation DNA synthesis assay; assay type: cell-based; conditions: 1a 50 μM; camptothecin 5 nM 18 hours
Description: Cells were either labeled immediately before treatment (starting DNA synthesis rate), or subjected to the indicated treatments and then pulsed on successive days until day 4. DNA synthesis is represented as the percent of starting DNA synthesis rate.
The present inventors used a 96-well viability assays as described in Saadatmandi et al (Cancer Gene Therapy (2002) 9:930-9) to examine the effect of the spermidine-CoA inhibitor disclosed previously on DNA synthesis in normal GT41F human skin fibroblast cells, as well as its combined effect with camptothecin. GT41F cells were plated in 96-well plates at 3000 cells per well. […] Following the 6-hour labeling, cells were harvested and incorporation of [^3H]-thymidine was determined by scintillation counting.

DLD-1 colon cancer cells = assay: 96-well MTS viability assay; assay type: cell-based; conditions: 3 days
Description: Cells were plated in 96-well plates at 2000 cells per well and treated with the indicated doses of spd-3a. Cell viability was measured by the MTS assay 3 days later.
DLD-1 cells or H358 cells were plated in 96-well plates at 2000 cells per well and treated with the indicated doses of (A) spm-3 or (B) spm-2. (C) Cell viability was measured by the MTS assay 3 days later. Similar experiment using GT41 fibroblasts with spm2 or spm 3. Each assay point represents an average of duplicates.

Q: With CC(=O)NCCSCC(=O)NCCCNCCCCN [3a] as the compound, how does the “inhibitory activity against endogenous HAT” value [1] read?
A: lower inhibitory effect than Spd-2a

Q: What does the source list for CC[C@@]1(O)C(=O)OCc2c1cc1n(c2=O)Cc2cc3ccccc3nc2-1 [camptothecin]?
A: γ-H2A.X level, single agent (γ-H2A.X in H358 cells): weakly detectable; effect on incorporation of [3H]-thymidine, single agent [2]: virtually no effect

Q: With CC(=O)NCCSCC(=O)NCCCNCCCCNCCCN [spm-3] as the compound, how does the “suppression of cell growth and viability, single agent” value (DLD-1 colon cancer cells) read?
A: effective as single agents
